Test results published in patent US5849587A, “Method of inhibiting viral replication in eukaryotic cells and of inducing apoptosis of virally-infected cells” (Cornell Research Foundation, Inc., priority 1995, dated 1998).
“Also recorded” adds a separate entry of the source.

Key:
cellular protein TNF-α = assay: TNF-α biosynthesis and secretion (ELISA) in PMA-induced ACH-2 cells; type: cell-based, human; details: 200 μM, PMA-induced ACH-2, FIG. 10
HIV-1 = assay: Titration assay of infectivity of virus (TCID50) produced by infected H9 cells, CEM target cells; type: cell-based; details: 48 hours, increasing concentrations
Protocol: (§1) 1. Dose-dependency of antiviral effect. Cells of the human T lymphocyte line H9, chronically and productively infected with the Lai (IIIb) strain of HIV-1, were harvested during logarithmic proliferation, extensively washed to remove viral antigens and infectious particles, and re-suspendedin serum-supplemented and antibiotic-containing RPMI 1640 medium at a density of 2×10^5 cells/ml. After incubation with increasing concentrations of mimosine or HK-1 for 48 hours, the cells were harvested, lysed, and used to determine the intracellular amount of the p24 antigen derived from the p55 Gag polyprotein, using a commercially available, p24-specific ELISA method (Coulter, Hialeah, Fla.); the same method was also used to quantify the extracellular level of p24 antigen that had accumulated in the supernatant during incubation with the hypusine inhibitors. In addition, titration assays were performed using CEM target cells to measure the infectivity of virus produced in the absence and presence of the hypusine inhibitors using the procedure of Prince et al., Proc. Natl. Acad. Sci. USA 85, 6944-6948 (1988), which is hereby incorporated by reference. The half-maximal tissue culture infectious doses (TCID50) of HIV-1 per ml of test sample were calculated by the Spearman-Karber method.

[1] = target: T1, deoxyhypusyl hydroxylase (DOHH) in human T-cell line ACH-2 (Homo sapiens, UniProt Q9BU89); assay: Deoxyhypusine-to-hypusine conversion by DOHH in ACH-2 cells; type: cell-based; details: for activity at 200 µM: ACH-2, 22 h, 22 hours, ACH-2 cells, FIG. 5, remaining conversion; for resumption of conversion after inhibitor removal: within 2 hours of inhibitor removal, after 200 μM, ACH-2
T1 construct: endogenous in cells; host or cells: ACH-2 (human T-cell line, subclone of the A3.01 variant of CEM)
T1 sequence (Q9BU89 1-302): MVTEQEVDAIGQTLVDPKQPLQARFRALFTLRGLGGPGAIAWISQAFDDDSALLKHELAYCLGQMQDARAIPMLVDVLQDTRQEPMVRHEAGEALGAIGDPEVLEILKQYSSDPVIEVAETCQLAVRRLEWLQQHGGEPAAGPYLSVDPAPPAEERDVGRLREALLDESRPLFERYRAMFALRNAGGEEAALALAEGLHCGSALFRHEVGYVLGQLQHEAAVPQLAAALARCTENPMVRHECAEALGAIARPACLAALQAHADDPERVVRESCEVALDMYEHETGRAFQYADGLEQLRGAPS
Protocol: DOHH Assay. The intracellular conversion of peptide-bound deoxyhypusine to peptidyl hypusine was determined after preincubation of human T lymphocyte-derived cells (i.e. ACH-2) [Clouse et al., J. Immunol. 142, 431-438 (1989), which is hereby incorporated by reference] with the hypusine inhibitors mimosine and HK-1 for 60 minutes, followed by labeling for 21 hours with ^3 H-spermidine (3.75 μCi/ml) in wells containing 3×10^6 cells suspended in 8 ml of serum-supplemented and antibiotic-containing RPMI 1640 medium. Cells were then split into two groups, one of them being harvested immediately to assess degree of DOHH inhibition, and the other harvested after transfer of the cells into inhibitor-free medium for 2 hours to measure resumption of DOHH activity. Harvesting consisted in precipitation of washed cells with 10% TCA containing 1 mM each of putrescine, spermidine, and spermine. Cellular proteins from each sample were then hydrolyzed in 6N HCl at 110° C. for 16 hours. The hydrolysate was analyzed for labeled amino acids on an amino acid analyzer by published methods [Park et al., J. Biol. Chem., 257, 7217-7222 (1982), which is hereby incorporated by reference]. The retention times of hypusine and deoxyhypusine were determined from standards. Similar studies were performed in human B-cells and human smooth muscle cells.

[2] = tested on: uninfected parent cell line CEM; assay: Cell membrane integrity / viability, uninfected parent cells; type: cell-based, human; details: incubation and withdrawal, FIG. 12B
Protocol: (§2) FIGS. 12A and B show the loss of cell membrane integrity suffered by HIV-1 producing ACH-2 cells and their uninfected parent cell line CEM during incubation with and after withdrawal of mimosine and HK-1. The black bar indicates the duration of inhibitor exposure, the open bar the duration of inhibitor withdrawal. Cell membrane integrity was determined by the ability of the cells to exclude the low-molecular weight dye trypan blue (FIGS. 12A and B) and to retain the spermidine-derived radioactive label of a single, obligatory intracellular protein species, eIF-5A and its deoxyhypusyl precursor (FIG. 12A).
(§3) ACH-2 cells were incubated with hypusine inhibitors (mimosine, HK-1) and induced with PMA as outlined in Example II A, except that the duration of exposure to inhibitor was extended to 18-21 hours and that cells were labeled as detailed in Example I B. Half of the cells were then harvested and processed for detection of apoptosis, while the other half was washed free of inhibitors and re-incubated in fresh medium for 2-4 hours, followed by harvesting and processing for detection of […] apoptosis. Using the same protocol, cultures of the parent CEM cell line were incubated in parallel. […]

[3] = tested on: HIV-1 infected ACH-2 cells; assay: Flow cytometry of genomic DNA 3'-ends (apoptosis), HIV-1 infected cells; type: cell-based, human; details: for fragmentation of genomic DNA / number of DNA 3'-ends, ACH-2: FIG. 13
Protocol: FIGS. 13A-F show the flowcytometrically determined distribution of the number of fluorescently labeled 3'-ends in the genomic DNA of HIV-1 producing ACH-2 cells ("ACH-2") and their uninfected parent cell line CEM ("CEM"), both receiving no treatment ("NT") or treatment for 18 hours with either 200 μM mimosine ("MIM") or 200 μM HK-1 ("HK1"). […] This is the hallmark of irreversible auto-destruction of a cell's genetic library.
FIGS. 14A-H show the flowcytometrically determined distribution of the number of fluorescently labeled 3'-ends in the genomic DNA of HIV-1 producing ACH-2 cells ("ACH-2") and of their uninfected parent cell line CEM ("CEM"), both receiving no treatment ("NT") or treatment for 18 hours with 200 μM mimosine ("MIM"), followed by inhibitor withdrawal and reincubation in fresh medium for 2 hours.
ACH-2 cells were incubated with hypusine inhibitors (mimosine, HK-1) and induced with PMA as outlined in Example II A, except that the duration of exposure to inhibitor was extended to 18-21 hours and that cells were labeled as detailed in Example I B. Half of the cells were then harvested and processed for detection of apoptosis, while the other half was washed free of inhibitors and re-incubated in fresh medium for 2-4 hours, followed by harvesting and processing for detection of […] apoptosis. Using the same protocol, cultures of the parent CEM cell line were incubated in parallel. For assessment of apoptosis, cell viability was measured by exclusion of the dye trypan blue, by retention of the ^3 H-spermidine-derived intracellular radioactivity incorporated into the obligatory intracellular protein eIF-5A, and by direct fluorescence detection of the intemucleosomal degradation of genomic DNA. Such irreversible genome degradation signals the activation of pre-programmed suicide mechanisms within any cell, which is the hallmark of apoptosis, and inescapably results in cell death [Compton, Cancer Metast. 11, 105-119 (1992), which is hereby incorporated by reference]. For the latter method, a commercially available kit was used (Oncor, Gaithersburg, Md.). Flow cytometric analysis of apoptotic cells was performed in accord with standard procedures.

[4] = tested on: HIV-1 p24 antigen, H9 cells; assay: p24 antigen levels (ELISA) in chronically HIV-1 infected H9 cells; type: cell-based; details: 48 hours, FIGS. 8 and 9
Protocol: as §1

[5] = tested on: HIV-1 infected ACH-2 cells; assay: Cell membrane integrity (trypan blue exclusion, retention of labeled eIF-5A), HIV-1 infected cells; type: cell-based, human; details: during 18-21 h incubation and 2-4 hours after withdrawal, FIGS. 12A and B
Protocol: as §2, §3

Row | Compound | TNF-α biosynthesis and secretion (cellular protein TNF-α) | production of infectious HIV-1 particles / infectivity of virus (HIV-1) | activity at 200 µM [1] [%] | resumption of conversion after inhibitor removal [1] | cell membrane integrity / viability, uninfected CEM [2] | fragmentation of genomic DNA / number of DNA 3'-ends, ACH-2 ([3]; 200 μM, 18 hours) | intra- and extracellular p24 antigen levels [4] | cell membrane integrity, HIV-1 producing ACH-2 [5] | DNA fragmentation after withdrawal, ACH-2 ([3]; 200 μM 18 hours, then 2 hours after withdrawal, FIG. 14) | second population (higher amount of 3'-ends) position, ACH-2 ([3]; 200 μM, 18 hours, FIG. 14) [channel] | average fluorescence peak position, ACH-2 ([3]; 200 μM, 18 hours, FIG. 14, control around channel 100) [channel]
1 | Cc1c(O)c(=O)ccn1C [HK-1, 1,2-dimethyl-3-hydroxypyrid-4-one] | absence of such a suppressive effect | dose-dependently suppressive effect | ≤ 10 | almost tripled; also recorded: recovers readily and triples within the first 2 hours of inhibitor removal | no such loss of membrane integrity was noted | triggered fragmentation of the genomic DNA; also recorded: increase of the number of 3'-ends in their DNA | inhibitory effect on the extracellular (FIG. 9A) and intracellular (FIG. 9B) levels of the p24 antigen | the most marked, uniform and rapid decline of membrane integrity developed 2-4 hours after inhibitor withdrawal | – | – | –
2 | N[C@@H](Cn1ccc(=O)c(O)c1)C(=O)O [L-Mimosine] | absence of such a suppressive effect | dose-dependently suppressive effect | ≤ 10 | almost tripled; also recorded: recovers readily and triples within the first 2 hours of inhibitor removal | no such loss of membrane integrity was noted | triggered fragmentation of the genomic DNA; also recorded: increase of the number of 3'-ends in their DNA | inhibitory effect on the intracellular (FIG. 8A) and extracellular (FIG. 8B) levels of the p24 antigen | the most marked, uniform and rapid decline of membrane integrity developed 2-4 hours after inhibitor withdrawal | this population did not decrease, but rather became the predominant one; also recorded: Within the 2 hours of release, this shift increased markedly | ~210 | 140
